The values below come from US20250169495A1, “COMPOSITIONS AND METHODS FOR CONTROLLING DROSOPHILA FLIES” (Rutgers, The State University of New Jersey, priority 2023, published 2025).

Structures are written as SMILES.

The subject of one test is Drosophila suzukii. As to the kind of experiment: Field cage experiments, cultivated highbush blueberry bushes. Type of test: in vivo. Here is the method: Field cage experiments were conducted from June until July using highbush blueberries (V. corymbosum var. ‘Bluecrop’). The studies were carried out in 5.5 m long×2.7 m tall cages, constructed with a PVC pipe frame covered with No-See-Um mesh (Quest Outfitters Inc., Sarasota, FL, USA) (FIG. 6C). Cages were placed in separate rows within a blueberry field, with bushes spaced approx. 0.76 m apart within the rows and 3.05 m between rows. Each row contained two cages at least 9 m in distance. To avoid interference between treatments, alternate cages were used during testing, ensuring that no adjacent cages contained sachets simultaneously. Two, 3-m rebar poles were used to reinforce the mesh on the long sides of each cage as well as 10 cm long garden staples to hold mesh flush to the ground, while the shorter ends were secured with clips to allow access to the cage. Each cage contained five blueberry bushes approx. 1.5 m in height. Sachets containing ethyl butanoate, ethyl (E)-but-2-enoate, or 2-pentylfuran were prepared as described before. To test the effects of the repellents on the treated (focal) bush and in neighboring bushes at various distances, two sachets of the same compound were hung from one of the end bushes in each cage (FIG. 6D). There were four treatments: 1) ethyl butanoate, 2) ethyl (E)-but-2-enoate, 3) 2-pentylfuran, and 4) control (no repellent). Each treatment was replicated four times, with each cage assigned to a single treatment, resulting in a total of 16 cages. Twenty-four hours after deploying the sachets, 120 flies (approximately 60 males and 60 females) were released into each cage at 18:00 hrs (N=120 flies×4 treatments×4 replicates=1,920 total flies). To ensure even distribution within the cages, 30 flies were released at four equidistant points between the bushes. A pre-sampling of the berries, conducted before the flies were released, confirmed the absence of any infestation. Berries were then collected 1-, 2-, and 3-days post-treatment. From every other bush (starting at the focal bush) in the cage, 50 berries from the top half and 50 from the bottom half were collected into two separate 236.6 mL deli containers lined with two cotton pads. From each berry sample, a random subsample of 10 berries were examined and egg counts recorded before being returned to the original container. The blueberries were incubated on a light bench in the laboratory for up to two weeks, as previously described, and adult emergence was recorded. The sachets were weighed before deployment and 3 days after deployment to measure the emission rates of each compound. Field cage data for both oviposition and adult emergence were non-normal, so non-parametric tests were applied using R statistical software. The effects of ‘Treatment’ (untreated control, ethyl butanoate, ethyl (E)-but-2-enoate, and 2-pentylfuran) across ‘Bush Position’ (focal, center, end) and ‘Day After Treatment’ (1, 2, 3 DAT) were assessed using the Kruskal-Wallis Test. When significant Treatment effects were found, post-hoc separation was performed using Dunn's Test.

Test [1] concerns Drosophila suzukii adults. The test is described as follows: Multiple choice bioassay #1: anthracnose-induced volatiles, gated traps with blueberries. Type of test: in vivo. Conditions: 50 μL neat volatile added to blueberry fruit in gated trap; 15 traps per arena; 24 h; n=4. As to the method:
These bioassays were done in arenas that consisted of a dome cage (60 cm width×60 cm length x 60 cm height; BugDorm-2120 Insect tent; shop.bugdorm.com) (FIG. 1A). Within each arena, 15 gated traps were positioned randomly in a circle (40 cm diameter) at equal distance with each trap 8.4 cm apart along the circumference (FIG. 1A). Each gated trap consisted of 50 mL polystyrene tubes (Fisher Scientific, Nazareth, PA, USA) covered with aluminum foil and sealed with Parafilm®, with a 4 mm-diameter hole in the center of the Parafilm to provide an entrance to flies. All traps had equal quantities (ca. 5 g) of store-bought organic blueberry fruit (n=5); fruit were sterilized with bleach prior to the study (10% bleach for 2 min, rinsed three times in distilled water). One of the 15 traps served as a control (with blueberry fruit only) and the remaining 14 traps had one of the anthracnose volatile compounds added to the blueberry fruit. The 14 compounds tested were: 3-hydroxy-2-butanone, styrene, (E)-2-hexen-1-ol, ethyl 3-hydroxy-3-methylbutanoate, 2-methyl-1-butanol, ethyl propanoate, 2-methyl-1-propanol, diethyl carbonate, 2-methylpropanal, 3-methyl-1-butanol, ethyl 2-methylpropanoate, ethyl butanoate, ethyl (E)-but-2-enoate, and 3-methyl-3 buten-1-ol (see Results). Each volatile (50 μL, neat) was released from a 1 mL polyethylene vial (Globe Scientific Inc., Paramus, NJ, USA) with a piece of cotton placed inside each trap (control traps had vials with cotton but without the volatile). A vial with a cotton ball soaked with deionized water was placed in the middle of the arena to provide flies with water during the experiment. Roughly 300 D. suzukii adults (1:1 male: female ratio) were released inside each arena and the number and sex of flies inside treatment and control traps was recorded after 24 h. The experiment started at 1:00 p.m., was replicated 4 times, and was done in a laboratory under 22+2° C., 55+5% RH, 16:8 (L:D) h.
Data from multiple choice assays on the percent of male and female D. suzukii adults responding to each volatile were compared using ANOVA (Minitab version 17; Minitab Inc., State College, PA, USA). The ANOVA model included treatment, sex, and their interaction as fixed factors and block (replicate) as a random factor. A multi-comparison Tukey test (Minitab) was used to determine differences among treatments. Percent data were arcsine square-root transformed prior to ANOVA. Pairwise choice assays were analyzed using G-tests with William's correction. Non-responders were excluded from the statistical analyses.

As to `CCCCCc1ccco1` [2-pentylfuran, reference compound], the egg counts result is recorded as “lower” in the test on Drosophila suzukii (1 DAT, central bush) and “fewest eggs” with Drosophila suzukii (1 DAT, end bush). Besides, the adult emergence result is given as “lowest adult emergence” in the test with Drosophila suzukii (3 DAT, center bush) and “lowest adult emergence” with Drosophila suzukii (3 DAT, focal bush).

As to `C/C=C/C(=O)OCC` [ethyl (E)-but-2-enoate], the “number of flies captured relative to the control” value in test [1] was “reduced the number of flies captured relative to the control”. Besides, the adult emergence result in the test with Drosophila suzukii (1 DAT, center bush) was “fewest adults emerge”; in the test on Drosophila suzukii (1 DAT, end bush), “fewest adults emerge”; in the test on Drosophila suzukii (2 DAT, center bush) it was “fewest adults emerge”; in the test on Drosophila suzukii (2 DAT, end bush), “fewest adults emerge”; with Drosophila suzukii (3 DAT, center bush), “lowest adult emergence”; in the test with Drosophila suzukii (3 DAT, end bush), “significantly different compared to the other repellents”. Also, the adult emergence result in the test on Drosophila suzukii (3 DAT, focal bush) is “lowest adult emergence”. For the same compound, the egg counts entry with Drosophila suzukii (1 DAT, end bush) is on record as “fewest eggs”; in the test with Drosophila suzukii (2 DAT, center bush), “lowest egg counts”; with Drosophila suzukii (2 DAT, end bush), “lowest egg counts”; with Drosophila suzukii (3 DAT, center bush), “lowest egg count”; in the test with Drosophila suzukii (3 DAT, end bush), “lowest egg count”; with Drosophila suzukii (3 DAT, focal bush), “lowest egg count”.

For the compound `CCCC(=O)OCC` [ethyl butanoate], in test [1], the “number of flies captured relative to the control” value is given as “reduced the number of flies captured relative to the control”.
